Test results published in ChEMBL document CHEMBL1139627, “A new orally bioavailable dual adenosine A2B/A3 receptor antagonist with therapeutic potential” (Bioorg Med Chem Lett, 2005).

Tests used:
[1] = target: T1, Adenosine receptor A2b (Homo sapiens) (UniProt P29275); assay: Inhibition of luciferase production elicited by NECA by compound in CHO cells transfected with human adenosine A2b receptor and a luciferase expressing reporter plasmid in a reporter gene assay; assay type: cell-based
T1 sequence (whole entry): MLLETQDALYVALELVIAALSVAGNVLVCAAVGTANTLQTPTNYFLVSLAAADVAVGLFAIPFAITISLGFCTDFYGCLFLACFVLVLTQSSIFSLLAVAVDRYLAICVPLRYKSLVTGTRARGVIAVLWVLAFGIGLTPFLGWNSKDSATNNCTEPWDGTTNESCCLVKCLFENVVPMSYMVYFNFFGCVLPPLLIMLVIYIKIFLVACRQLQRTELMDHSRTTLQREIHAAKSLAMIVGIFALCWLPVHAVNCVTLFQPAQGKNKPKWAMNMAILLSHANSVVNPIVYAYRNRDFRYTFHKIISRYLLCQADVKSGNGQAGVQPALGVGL

Adenosine receptor A1 = target: T2, Adenosine receptor A1 (Homo sapiens, UniProt P30542); assay: Displacement of [3H]DPCPX from human adenosine A1 receptors transfected in CHO cells; assay type: cell-based
T2 sequence (P30542 whole entry): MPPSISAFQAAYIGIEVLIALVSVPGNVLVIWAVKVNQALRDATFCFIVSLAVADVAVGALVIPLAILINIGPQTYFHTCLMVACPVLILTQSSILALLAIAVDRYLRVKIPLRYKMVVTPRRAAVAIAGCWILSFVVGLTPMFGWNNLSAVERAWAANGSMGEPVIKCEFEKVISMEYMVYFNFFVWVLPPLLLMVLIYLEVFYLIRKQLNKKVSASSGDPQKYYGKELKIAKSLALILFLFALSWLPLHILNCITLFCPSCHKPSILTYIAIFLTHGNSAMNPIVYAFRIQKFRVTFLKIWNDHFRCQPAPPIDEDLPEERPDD

Adenosine receptor A3 = target: T3, Adenosine receptor A3 (Homo sapiens, UniProt P0DMS8); assay: Displacement of [125I]-AB-MECA from human adenosine A3 receptors transfected in CHO cells; assay type: cell-based
T3 sequence (P0DMS8 whole entry): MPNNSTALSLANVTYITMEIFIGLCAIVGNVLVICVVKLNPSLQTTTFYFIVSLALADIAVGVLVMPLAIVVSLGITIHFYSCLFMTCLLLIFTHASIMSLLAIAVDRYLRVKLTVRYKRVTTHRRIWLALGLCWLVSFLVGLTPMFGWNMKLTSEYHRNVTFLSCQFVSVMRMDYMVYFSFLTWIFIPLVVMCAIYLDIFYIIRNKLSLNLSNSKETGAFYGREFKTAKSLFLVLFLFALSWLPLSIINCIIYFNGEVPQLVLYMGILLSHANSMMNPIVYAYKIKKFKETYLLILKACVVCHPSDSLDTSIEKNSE

Adenosine receptor A2a = Adenosine receptor A2a (Homo sapiens, UniProt P29274); assay: Displacement of [3H]ZM-241,385 from human adenosine A2a receptors transfected in HEK 293 cells; assay type: cell-based, HEK293
[2] = Maximum concentration in wistar rat at 1 mL/kg concentration of compound after oral administration; assay type: ADME, organism-based; parameters: dose 1 mL/kg, route oral; settings: in vivo
[3] = Clearance in wistar rat was determined by intra venous administration of 2:1 PEG200/0.1 M phosphate buffer at 0.1 mL/kg concentration; assay type: ADME, organism-based; settings: in vivo, iv
[4] = Time to reach Cmax after oral administration at 1 mL/kg concentration in wistar rat; assay type: ADME, organism-based; settings: in vivo
[5] = Bioavailability of compound after oral administration at 1 mL/kg concentration in wistar rat; assay type: ADME, organism-based; settings: in vivo, read-out: BAV
[6] = Half life of trhe compound after oral administration at 1 mL/kg concentration in wistar rat; assay type: ADME, organism-based; settings: in vivo
[7] = Half life in wistar rat was determined by intra venous administration of 2:1 PEG200/0.1 M phosphate buffer at 0.1 mL/kg concentration; assay type: ADME; settings: in vivo, iv
[8] = Volume abserved at study state after intra venous administration of 2:1 PEG200/0.1 M phosphate buffer at 0.1 mL/kg concentration in wistar rat; assay type: ADME, organism-based; settings: in vivo, iv, read-out: Vss

Adenosine receptor A2a, sequence (P29274 whole entry): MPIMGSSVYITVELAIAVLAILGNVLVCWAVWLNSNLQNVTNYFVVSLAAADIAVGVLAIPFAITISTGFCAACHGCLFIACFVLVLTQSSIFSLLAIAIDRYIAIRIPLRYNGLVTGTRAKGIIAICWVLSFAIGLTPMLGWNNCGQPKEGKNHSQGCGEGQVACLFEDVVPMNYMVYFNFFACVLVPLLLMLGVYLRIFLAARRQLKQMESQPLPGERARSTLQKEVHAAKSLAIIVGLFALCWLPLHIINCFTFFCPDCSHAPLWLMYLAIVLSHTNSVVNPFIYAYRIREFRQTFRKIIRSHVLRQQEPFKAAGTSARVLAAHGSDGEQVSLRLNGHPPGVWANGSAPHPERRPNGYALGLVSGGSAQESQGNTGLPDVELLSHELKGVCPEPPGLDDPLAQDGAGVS

| Structure (SMILES) | Kb [1] | Ki (Adenosine receptor A1) | Ki (Adenosine receptor A3) | Ki (Adenosine receptor A2a) | Cmax [2] | clearance [3] | Tmax [4] | bioavailability [5] | half-life [6] | half-life [7] | Vd [8] |
| --- | --- | --- | --- | --- | --- | --- | --- | --- | --- | --- | --- |
| N#Cc1cccc(-c2nc(Nc3cccnc3)sc2-n2cncn2)c1 | 86 nM | 1530 nM | 698 nM | 2570 nM |  |  |  |  |  |  |  |
| CC(=O)Nc1nc(-c2cccc(C#N)c2)c(-n2cncn2)s1 | 365 nM | 2840 nM | 134 nM | 5610 nM |  |  |  |  |  |  |  |
| N#Cc1cccc(-c2nc(Nc3cccnc3)sc2-n2ccnc2)c1 | 92 nM | 560 nM | 124 nM | 2700 nM |  |  |  |  |  |  |  |
| Cc1cccc(Nc2nc(-c3cccc(C#N)c3)c(-n3cncn3)s2)n1 | 20 nM | > 10000 nM | 37 nM | > 10000 nM |  |  |  |  |  |  |  |
| N#Cc1cccc(-c2nc(Nc3ccccn3)sc2-n2cncn2)c1 | 53 nM | 1760 nM | 24 nM | 2020 nM |  |  |  |  |  |  |  |
| N#Cc1cccc(-c2nc(Nc3ccncc3)sc2-n2cncn2)c1 | 62 nM |  | 304 nM | 4160 nM |  |  |  |  |  |  |  |

More lines, now with the values ahead:

| Kb [1] | Ki (Adenosine receptor A1) | Ki (Adenosine receptor A3) | Ki (Adenosine receptor A2a) | Cmax [2] | clearance [3] | Tmax [4] | bioavailability [5] | half-life [6] | half-life [7] | Vd [8] | Structure (SMILES) |
| --- | --- | --- | --- | --- | --- | --- | --- | --- | --- | --- | --- |
| 7 nM | 46 nM | 11 nM | 349 nM |  |  |  |  |  |  |  | N#Cc1cccc(-c2nc(Nc3cnccn3)sc2-n2ccnc2)c1 |
| 92 nM | 8 nM | 44 nM | 2700 nM |  |  |  |  |  |  |  | Cc1cccc(Nc2nc(-c3cccc(C#N)c3)c(-n3ccnc3)s2)n1 |
| 3 nM | 197 nM | 10 nM | 1670 nM | 560 nM | 94.4 mL/min/kg | 39.3 min | 30.2% | 191 min | 29 min | 3.02 L/kg | Cc1nccn1-c1sc(Nc2cnccn2)nc1-c1cccc(C#N)c1 |
| 10 nM | 224 nM | 419 nM | 175 nM |  |  |  |  |  |  |  | Cc1cccc(Nc2nc(-c3cccc(C#N)c3)c(-n3ccnc3C)s2)n1 |
| 12 nM | 2090 nM |  | 3580 nM |  |  |  |  |  |  |  | N#Cc1cccc(-c2nc(Nc3cnccn3)sc2-n2cncn2)c1 |
